Laboratory results published in patent publication US4611001A, “Antimycotic pyrazolotetrathiepins” (E. I. Du Pont de Nemours and Company, priority 1985, dated 1986).
Converted amounts (≈) assume the structure as drawn.

What was measured:
fungi = test: in vitro antifungal (antimycotic) activity, general statement; assay type: cell-based; conditions: by-product; test not specified
Description: (§1) The fused pyrazolotetrathiepins of the invention are useful as antimycotic agents. The data is a result of different state of the art protocols, which employ either agar dilution or microtiter broth dilution techniques.

[1] = tested on: Microsporum gypseum (MICRO-1); test: Protocol 3: microtiter broth dilution MIC/MFC for dermatophytes, EMEM; assay type: cell-based, Microsporum gypseum ATCC e9083; conditions: Nannizzia gypsea
Description: as §1
(§2) The test organisms used are two yeasts, Candida albicans ATCC 11651 (CAND-1), C. albicans ATCC e10231 (CAND-2) and two dermatophyte strains. Microsporum gypseum ATCC e9083 (MICRO-1) and Trichophyton rubrum ATCC 18756 (TRICH-1). These organisms are standardized to a concentration of 10^7 organisms/mL, aliquoted and frozen at -70°.
(§3) The compounds are dissolved in dimethyl sulfoxide (DMSO) and tested at specific concentrations required for the particular assay.
(§4) Appropriate standards are included with each assay. Their minimal inhibitory concentrations (MIC) values are shown in Table 4 according to the particular protocol used. Stock solutions of standard agents are stored at -70° and diluted the day of the assay.
(§5) Protocol 3 is a microtiter broth dilution assay that has been adapted for dermatophytes using EMEM and is described by Granade and Artis, J. Clin. Micro., 6, 1043-1047 (1982). Both strains of dermatophytes, MICRO-1 and TRICH-1 are diluted in broth to achieve an inoculum of 1×10^4 spores/mL. The compound is serially diluted from 100 μg/mL to 0.4 μg/mL in 10-two fold dilutions. The test is incubated at 30° for 72 hrs and the MIC values are determined. The minimum fungicidal concentration (MFC) assay is performed using the 72 hr microtiter plates. (Szoka, F., Mycology Observer, November-December, 1983). These plates are shaken vigorously and lμl/broth well is transferred with a micropipetter onto the appropirate well on a 24 well agar (EMEM) plate. These plates are then incubated at 30° for 72 hrs and read for MFC's.

[2] = tested on: Trichophyton rubrum (TRICH-1); test: as above; assay type: cell-based, Trichophyton rubrum ATCC 18756
Description: as §1, §2, §3, §4, §5

[3] = tested on: Candida albicans (CAND-1); test: Protocol 5: microtiter broth dilution MIC/MFC, EMEM broth pH 7.4; assay type: cell-based, Candida albicans ATCC 11651
Description: as §1, §2, §3, §4
(§6) Protocols 4 and 5 both utilize a standard microtiter broth dilution method described by Barry (Antimicrobic Susceptibilty Test: Principles and Practices, Lea and Febiger, 1976) but each uses a different medium. Protocol 4 uses Yeast Nitrogen Base broth pH 7.0 [Shadomy, S. Applied Microbiology, 17, 871-877 (1969)] while protocol 5 uses EMEM broth pH 7.4. The test organisms, CAND-1 and CAND-2 are diluted in the appropriate broth to achieve an inoculum of 1×10^4 CFUs/mL.
(§7) The compounds are tested from 100 μg/mL-0.4 μg/mL in 10-two fold serial dilutions and the assay is incubated at 37°, 5% CO2 for 24 hrs. MFC's are then determined as previously described but the plates are incubated under the conditions appropriate for Candida spp.

[4] = tested on: Candida albicans (CAND-2); test: as above; assay type: cell-based, C. albicans ATCC e10231
Description: as §1, §2, §3, §4, §6, §7

[5] = tested on: Microsporum gypseum (MICRO-1); test: Protocol 2: agar dilution MIC, Eagle's Minimum Essential Medium Agar (EMEM); assay type: cell-based, Microsporum gypseum ATCC e9083; conditions: Nannizzia gypsea
Description: as §1, §2, §3, §4
(§8) Protocols 1 & 2 use a modification of the agar dilution method (Barry, A. L., The Antimicrobic Susceptibility Test: Principles and Practices, Lea and Febiger, 1976) with either Sabouraud dextrose agar (protocol 1) or Eagle's Minimum Essential Medium Agar (EMEM) (protocol 2).
(§9) The compound is tested at four specific concentrations within the range of 100 μg/mL-0.04 μg/mL and is incorporated directly into 20 mL molten agar (50°). The plates are then inoculated with the spore suspensions of MICRO-1 and TRICH-1 at 5×10^6 spores/mL using a multi point inoculator. The plates are incubated at ambient temperature for seven days and the MIC values determined.

[6] = tested on: Trichophyton rubrum (TRICH-1); test: as above; assay type: cell-based, Trichophyton rubrum ATCC 18756
Description: as §1, §2, §3, §4, §8, §9

[7] = tested on: Candida albicans (CAND-1); test: In vitro dilution MIC, protocol not given; assay type: cell-based, Candida albicans ATCC 11651; conditions: up to 100 μg/mL
Description: as §1, §2, §3
(§10) Protocols 4 and 5 both utilize a standard microtiter broth dilution method described by Barry (Antimicrobic Susceptibilty Test: Principles and Practices, Lea and Febiger, 1976) but each uses a different medium. Protocol 4 uses Yeast Nitrogen Base broth pH 7.0 [Shadomy, S. Applied Microbiology, 17, 871-877 (1969)] while protocol 5 uses EMEM broth pH 7.4. […]
as §7

[8] = tested on: Candida albicans (CAND-2); test: In vitro dilution MIC, protocol not given; assay type: cell-based, C. albicans ATCC e10231; conditions: up to 100 μg/mL
Description: as §1, §2, §3, §10, §7

[9] = tested on: Candida albicans (CAND-1); test: Protocol 4: microtiter broth dilution MIC, Yeast Nitrogen Base broth pH 7.0; assay type: cell-based, Candida albicans ATCC 11651; conditions: for MIC: Candida albicans
Description: as §1, §2, §3, §4, §6, §7

[10] = tested on: Candida albicans (CAND-2); test: as above; assay type: cell-based, C. albicans ATCC e10231; conditions: for MIC: Candida albicans
Description: as §1, §2, §3, §4, §6, §7

[11] = tested on: Microsporum gypseum (MICRO-1); test: Protocol 1: agar dilution MIC, Sabouraud dextrose agar; assay type: cell-based, Microsporum gypseum ATCC e9083; conditions: Nannizzia gypsea
Description: as §1, §2, §3
(§11) Appropriate standards are included with each assay. Their minimal inhibitory concentrations (MIC) values are shown in Table 4 according to the particular protocol used. Stock solutions of standard agents are stored at -70° and diluted the day of the assay. […]
(§12) The compound is tested at four specific concentrations within the range of 100 μg/mL-0.04 μg/mL and is incorporated directly into 20 mL molten agar (50°). […] The plates are incubated at ambient temperature for seven days and the MIC values determined.

[12] = tested on: Trichophyton rubrum (TRICH-1); test: as above; assay type: cell-based, Trichophyton rubrum ATCC 18756
Description: as §1, §2, §3, §11, §12

[13] = Candida albicans, Protocol 5, 37°, 5% CO2, 24 hrs, read-out: MIC CAND-1
[14] = Candida albicans, Protocol 5, 37°, 5% CO2, 24 hrs, read-out: MIC CAND-2
[15] = 168 h, Protocol 2, ambient temperature, seven days, read-out: MIC MICRO-1
[16] = 168 h, Protocol 2, ambient temperature, seven days, read-out: MIC TRICH-1
[17] = Protocol 4, mean of five determinations ± standard deviation, read-out: MIC CAND-1 of standards
[18] = Protocol 4, mean of five determinations ± standard deviation, read-out: MIC CAND-2 of standards
[19] = Candida albicans, Protocol 5, mean of five determinations ± standard deviation, read-out: MIC CAND-1 of standards
[20] = Candida albicans, Protocol 5, mean of five determinations ± standard deviation, read-out: MIC CAND-2 of standards
[21] = Protocol 4, mean of five determinations ± standard deviation
[22] = Protocol 5, mean of five determinations ± standard deviation

CC1(C)SSc2cn(-c3ccccc3)nc2SS1 [3,3-dimethyl-7-phenyl-1,2,4,5-pyrazolotetrathiepin]
activity (in words) (fungi): inactive

Cn1cc2c(n1)SSC(C)(C)SS2 [Example 4, 3,3-Dimethyl-7-methyl-1,2,4,5-pyrazolotetrathiepin]
MIC ([1]; Protocol 3, 30°, 72 hrs, read-out: MIC MICRO-1): 12.5 µg/mL (≈ 49.9 µM)
MFC ([1]; Protocol 3, in brackets, subculture on EMEM agar 30°, 72 hrs, read-out: MFC MICRO-1 (minimum fungicidal concentration)): 25 µg/mL (≈ 99.8 µM)
MIC ([2]; Protocol 3, 30°, 72 hrs, read-out: MIC TRICH-1): 12.5 µg/mL (≈ 49.9 µM)
MFC ([2]; Protocol 3, in brackets, subculture on EMEM agar 30°, 72 hrs, read-out: MFC TRICH-1 (minimum fungicidal concentration)): 25 µg/mL (≈ 99.8 µM)
MIC [3, 13]: 25 µg/mL (≈ 99.8 µM)
MFC ([3]; Candida albicans, Protocol 5, in brackets, read-out: MFC CAND-1 (minimum fungicidal concentration)): 50 µg/mL (≈ 200 µM)
MIC [4, 14]: 25 µg/mL (≈ 99.8 µM)
MFC ([4]; Candida albicans, Protocol 5, in brackets, read-out: MFC CAND-2 (minimum fungicidal concentration)): 50 µg/mL (≈ 200 µM)

CC1(C)SSSc2nn(-c3ccccc3)cc2S1 [Example 2, 2,2-Dimethyl-7-phenyl-1,3,4,5-pyrazolotetrathiepin]
MIC [5, 15]: 1 µg/mL (≈ 3.2 µM)
MIC [6, 16]: 0.2 µg/mL (≈ 0.64 µM)
MIC CAND-1 (in words) [7]: Inactive at 100 μg/mL
MIC CAND-2 (in words) [8]: Inactive at 100 μg/mL

CC(=O)N1CCN(c2ccc(OCC3COC(Cn4ccnc4)(c4ccc(Cl)cc4Cl)O3)cc2)CC1 (stereo not shown) [Ketoconazole]
MIC [9, 17]: 0.15 ± 0.1 µg/mL (≈ 0.282 µM)
MIC [10, 18]: 0.22 ± 0.04 µg/mL (≈ 0.414 µM)
MIC [3, 19]: 0.3 ± 0.04 µg/mL (≈ 0.565 µM)
MIC [4, 20]: 0.2 ± 0.04 µg/mL (≈ 0.376 µM)

COC1=CC(=O)C[C@@H](C)[C@]12Oc1c(Cl)c(OC)cc(OC)c1C2=O [Griseofulvin]
MIC ([11]; Protocol 1, mean of five determinations ± standard deviation, read-out: MIC MICRO-1 of standards): 2 ± 0.7 µg/mL (≈ 5.67 µM)
MIC ([12]; Protocol 1, mean of five determinations ± standard deviation, read-out: MIC TRICH-1 of standards): 1.8 ± 0.7 µg/mL (≈ 5.1 µM)
MIC ([5]; Protocol 2, mean of five determinations ± standard deviation, read-out: MIC MICRO-1 of standards): 4.5 ± 3 µg/mL (≈ 12.8 µM)
MIC ([6]; Protocol 2, mean of five determinations ± standard deviation, read-out: MIC TRICH-1 of standards): 9.4 ± 4 µg/mL (≈ 26.6 µM)
MIC ([1]; Protocol 3, mean of five determinations ± standard deviation, read-out: MIC MICRO-1 of standards): 5.4 ± 2 µg/mL (≈ 15.3 µM)
MIC ([2]; Protocol 3, mean of five determinations ± standard deviation, read-out: MIC TRICH-1 of standards): 6.3 µg/mL (≈ 17.9 µM)

Nc1nc(=O)[nH]cc1F [5-Fluorocytosine]
MIC [9, 17]: 0.7 ± 0.2 µg/mL (≈ 5.42 µM)
MIC [10, 18]: 1.1 ± 0.4 µg/mL (≈ 8.52 µM)
MIC [3, 19]: 1.1 ± 0.4 µg/mL (≈ 8.52 µM)
MIC [4, 20]: 1.3 ± 0.4 µg/mL (≈ 10.1 µM)

C[C@@H]1[C@H](O)[C@@H](C)/C=C/C=C/C=C/C=C/C=C/C=C/C=C/[C@H](O[C@@H]2O[C@H](C)[C@@H](O)[C@H](N)[C@@H]2O)C[C@@H]2O[C@](O)(C[C@@H](O)C[C@@H](O)[C@H](O)CC[C@@H](O)C[C@@H](O)CC(=O)O[C@H]1C)C[C@H](O)[C@H]2C(=O)O [Amphotericin B]
MIC CAND-1 of standards [9, 21]: 0.6 ± 0.2 µg/mL
MIC CAND-2 of standards [10, 21]: 0.5 ± 0.3 µg/mL
MIC CAND-1 of standards [3, 22]: 0.5 ± 0.3 µg/mL
MIC CAND-2 of standards [4, 22]: 0.7 ± 0.3 µg/mL

Cn1cc2c(n1)SSSC(C)(C)S2 [Example 5, 2,2-Dimethyl-7-methyl-1,3,4,5-pyrazolotetrathiepin]
MIC ([11]; 168 h, Protocol 1, ambient temperature, seven days, read-out: MIC MICRO-1): 4 µg/mL (≈ 16 µM)
MIC ([12]; 168 h, Protocol 1, ambient temperature, seven days, read-out: MIC TRICH-1): 4 µg/mL (≈ 16 µM)
MIC ([9]; Protocol 4, 37°, 5% CO2, 24 hrs, read-out: MIC CAND-1): 12.5 µg/mL (≈ 49.9 µM)
MIC ([10]; Protocol 4, 37°, 5% CO2, 24 hrs, read-out: MIC CAND-2): 6.3 µg/mL (≈ 25.2 µM)
MIC [3, 13]: 3.2 µg/mL (≈ 12.8 µM)
MIC [4, 14]: 1.6 µg/mL (≈ 6.39 µM)

Clc1ccc(COC(Cn2ccnc2)c2ccc(Cl)cc2Cl)c(Cl)c1 (stereo not shown) [Miconazole]
MIC ([9]; read-out: MIC CAND-1 of standards): 0.36 ± 0.12 µg/mL (≈ 0.865 µM)
MIC ([10]; read-out: MIC CAND-2 of standards): 0.5 ± 0.2 µg/mL (≈ 1.2 µM)
MIC ([3]; Candida albicans, read-out: MIC CAND-1 of standards): 0.5 ± 0.4 µg/mL (≈ 1.2 µM)
MIC ([4]; Candida albicans, read-out: MIC CAND-2 of standards): 0.5 ± 0.4 µg/mL (≈ 1.2 µM)

CC1(C)SSSc2cn(-c3ccccc3)nc2S1 [Example 3, 4,4-Dimethyl-7-phenyl-1,2,3,5-pyrazolotetrathiepin]
MIC [5, 15]: 1 µg/mL (≈ 3.2 µM)
MIC [6, 16]: 1 µg/mL (≈ 3.2 µM)
MIC CAND-1 (in words) [7]: Inactive at 100 μg/mL
MIC CAND-2 (in words) [8]: Inactive at 100 μg/mL

C[C@@H]1[C@H](O)[C@@H](C)/C=C/C=C/CC/C=C/C=C/C=C/C=C/C(O[C@H]2O[C@H](C)[C@@H](O)[C@H](N)[C@@H]2O)CC2O[C@](O)(CC(O)C(O)CCC(O)CC(O)CC(O)CC(=O)O[C@H]1C)CC(O)C2C(=O)O (stereo partly shown) [Nystatin]
MIC CAND-1 of standards [9, 21]: 6.0 ± 2.0 µg/mL
MIC CAND-2 of standards [10, 21]: 5.0 ± 1.5 µg/mL
MIC CAND-1 of standards [3, 22]: 5.0 ± 0 µg/mL
MIC CAND-2 of standards [4, 22]: 4.5 ± 1.0 µg/mL
